From paper PMC9981504 (Journal of Biological Inorganic Chemistry, 2023)

Target: T1, soybean lipoxygenase (Glycine max, UniProt P08170)
T1 construct: gene LOX1.1
Assay: UV enzyme assay at […] nm, % inhibition at […]
Assay type: biochemical
Conditions: read-out: LOX % 100 μM or IC50

T1 sequence (P08170 whole entry): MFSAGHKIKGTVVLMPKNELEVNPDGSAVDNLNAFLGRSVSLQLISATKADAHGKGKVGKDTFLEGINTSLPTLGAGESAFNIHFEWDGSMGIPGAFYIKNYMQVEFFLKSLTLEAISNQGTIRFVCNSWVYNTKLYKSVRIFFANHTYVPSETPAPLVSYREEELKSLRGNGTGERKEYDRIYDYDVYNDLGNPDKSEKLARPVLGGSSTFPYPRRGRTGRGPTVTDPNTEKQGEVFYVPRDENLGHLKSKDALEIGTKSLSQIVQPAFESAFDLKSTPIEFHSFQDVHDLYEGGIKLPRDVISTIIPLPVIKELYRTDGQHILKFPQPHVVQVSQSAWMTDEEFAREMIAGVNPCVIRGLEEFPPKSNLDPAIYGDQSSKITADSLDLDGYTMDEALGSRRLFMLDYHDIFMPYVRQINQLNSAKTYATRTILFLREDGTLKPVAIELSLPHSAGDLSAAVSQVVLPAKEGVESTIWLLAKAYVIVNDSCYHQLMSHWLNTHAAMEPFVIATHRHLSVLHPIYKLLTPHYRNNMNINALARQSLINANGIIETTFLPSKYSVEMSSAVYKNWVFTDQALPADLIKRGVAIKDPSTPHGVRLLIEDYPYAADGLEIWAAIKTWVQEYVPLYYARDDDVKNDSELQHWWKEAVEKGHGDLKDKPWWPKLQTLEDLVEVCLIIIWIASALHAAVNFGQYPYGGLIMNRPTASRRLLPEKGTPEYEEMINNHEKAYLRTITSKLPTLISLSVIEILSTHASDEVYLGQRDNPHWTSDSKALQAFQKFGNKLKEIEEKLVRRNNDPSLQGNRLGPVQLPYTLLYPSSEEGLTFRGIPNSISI

SMILES: O=c1c(O)c(-c2ccc(O)cc2)oc2cc(O)ccc12 [resokaempferol, 3,7,4΄-trihydroxyflavone]
- inhibition at 100 µM: 90%
